6 compounds from US4957911A, “Benzazecine derivatives for cognitive and memory functions” (Hoffmann-La Roche Inc., priority 1986, dated 1990) can be followed below.

The subject of data set [1] is rats. The experiment in a line: Passive avoidance in Skinner box: reversal of scopolamine-induced blocking of short-time memory. The note with it: scopolamine 0.3 mg/kg i.p. and distilled water p.o. Type of data set: in vivo, rat. The source says: The test apparatus is a "Skinner box" with an electrifiable grid floor (30×40 cm) and a grey plastic platform (15×15×0.8 cm) in the front right corner. Untrained male rats (100-120 g) are placed individually on the platform. As soon as they climb down on to the grid floor they receive a mild electric foot-shock (0.8 mA). The normal reaction of untrained rats is to climb back on to the platform. The foot-shock procedure must be repeated three to five times for each animal, after which the rats have acquired a "passive avoidance response", that is, they no longer attempt to descend from the platform to the grid floor.
Immediately thereafter three groups, each comprising 30 animals, are set up. The first group receives an injection (i.p.) of 0.3 mg/kg of scopolamine as well as distilled water (2 ml/kg p.o.). The second group receives an injection (i.p.) of 0.3 mg/kg of scopolamine and an oral dosage of the test substance. The third group receives only distilled water (p.o.).
Two hours later, each rat is placed once on the platform in the "Skinner box". […] The statistical significance of the difference between the results obtained in the first and in the second groups is determined by means of the Chi-Square test.
70-75% of the animals treated only with distilled water (p.o.) still remember 2-4 hours after learning the "passive avoidance response" that they should remain on the platform. […]

Data set [2] can be described thus: Acute toxicity, single oral administration to mice (LD50). The note with it: mouse, in vivo. The source says:
Moreover, the Table contains data for the acute toxicity (LD50 in mg/kg in the case of single oral administration to mice).

For `CN1[C@@H]2C[C@@H](OC(=O)[C@H](CO)c3ccccc3)C[C@H]1[C@@H]1O[C@@H]12` [scopolamine], in data set [1], the “animals with retrograde effect on the short-time memory” value is listed as 85-92% and the “duration of retrograde effect on the short-time memory” value lay in the range of 3 to 4 h.
One may read the LD50 as the dose at which mortality reaches 50%. Low values mean a more toxic substance, high ones a less toxic substance. `CC(=O)N1CCCC(=O)c2ccc(F)cc2CCC1=O` [I H H F H COCH3, 4-acetyl-11-fluoro-1,2,4,5,6,7-hexahydro-4-benzazecine-3,8-dione] yielded an LD50 in data set [2] above 5000 mg/kg.
Still for that read-out and setting: as for `CC(=O)N1CCCC2=C1CCc1cc(Cl)ccc12` [II H H Cl H COCH3, 4-acetyl-8-chloro-1,2,3,4,5,6-hexahydrobenzo[f]quinoline], the figure is 2500 to 5000 mg/kg; as for `CC(=O)N1CCCC(=O)c2ccc(Cl)cc2CCC1=O` [I H H Cl H COCH3, 4-acetyl-11-chloro-1,2,4,5,6,7-hexahydro-4-benzazecine-3,8-dione], above 5000 mg/kg; as for `CC(=O)N1CCCC(=O)c2c(Cl)cccc2CCC1=O` [I Cl H H H COCH3, 4-acetyl-9-chloro-1,2,4,5,6,7-hexahydro-4-benzazecine-3,8-dione], above 5000 mg/kg.
As for `CC(=O)N1CCCC(=O)c2c(Cl)cc(Cl)cc2CCC1=O` [I Cl H Cl H COCH3, 4-acetyl-9,11-dichloro-1,2,4,5,6,7-hexahydro-4-benzazecine-3,8-dione], the 50% lethal dose (LD50) in data set [2] is above 5000 mg/kg.
